SMILES strings stand for the structures. Bounds are passed on as bounds.

The source of these data is ChEMBL document CHEMBL3097992, “Comparative molecular field analysis of fenoterol derivatives interacting with an agonist-stabilized form of the β₂-adrenergic receptor” (Bioorg Med Chem, 2014).

The target in assay [1] is T1, Beta-2 adrenergic receptor (Homo sapiens, UniProt P07550). Put plainly: Displacement of [3H]-(R,R')-methoxyfenoterol from human beta2 adrenergic receptor expressed in HEK cells by liquid scintillation counting analysis. The assay is classed as cell-based, HEK293. On the technique in general: Displacement assays read how much labelled ligand stays bound in the presence of the test substance.

Assay [2] concerns the target T1, Beta-2 adrenergic receptor. Put plainly: Agonist activity at human beta2 adrenergic receptor expressed in HEK293 cells assessed as stimulation of cAMP accumulation. It counts as functional, cell-based. Background: Changes in cAMP serve as a functional read-out for many G protein-coupled receptors.
Assay [3] deals with T1, Beta-2 adrenergic receptor. Put plainly: Displacement of [3H]-CGP-12177 from human beta2 adrenergic receptor expressed in HEK cells by liquid scintillation counting analysis. The assay is classed as cell-based, HEK293.

T1 sequence (P07550 whole entry): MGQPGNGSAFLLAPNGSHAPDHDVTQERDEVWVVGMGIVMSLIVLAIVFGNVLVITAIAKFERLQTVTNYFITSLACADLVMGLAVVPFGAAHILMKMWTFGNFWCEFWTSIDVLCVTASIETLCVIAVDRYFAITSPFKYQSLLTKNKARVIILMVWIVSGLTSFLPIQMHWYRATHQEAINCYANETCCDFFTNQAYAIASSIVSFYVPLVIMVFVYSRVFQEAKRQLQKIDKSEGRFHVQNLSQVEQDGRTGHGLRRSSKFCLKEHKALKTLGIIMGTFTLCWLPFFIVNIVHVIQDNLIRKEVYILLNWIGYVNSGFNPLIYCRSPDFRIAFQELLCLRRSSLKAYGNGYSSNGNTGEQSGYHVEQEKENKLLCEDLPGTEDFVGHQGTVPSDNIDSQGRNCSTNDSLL

In general, Ki refers to the equilibrium dissociation constant of an inhibitor or competing ligand from its target. A high value points to lower affinity. In assay [1], `CC[C@H](Cc1ccc(O)cc1)NC[C@H](O)c1cc(O)cc(O)c1` gave a Ki of 0.0391 µM.

As usually defined, the EC50 is the concentration at which the effect is half-maximal. `COc1ccc(C[C@H](NC[C@H](O)c2cc(O)cc(O)c2)C(C)C)cc1`: in assay [2], the EC50 amounted to 26.2 µM. Moreover, the Ki in assay [1] is 29.2 µM; in assay [3] it was greater than 100 µM.

`COc1ccc(C[C@@H](NC[C@H](O)c2cc(O)cc(O)c2)C(C)C)cc1`: the EC50 in assay [2] was 6.1 µM. The Ki in assay [1] is 3.42 µM; in assay [3], greater than 100 µM.

Take `CC[C@@H](Cc1ccc(OC)cc1)NC[C@H](O)c1cc(O)cc(O)c1`: in assay [2], the EC50 was determined as 1.01 µM. Also, the values for the inhibitory constant (Ki) in assay [1] and in assay [3] were 4.3 µM and 20.1 µM, respectively.

Regarding `CC[C@H](Cc1ccc(OC)cc1)NC[C@H](O)c1cc(O)cc(O)c1`, in assay [2], the EC50 was determined as 0.00163 µM. Besides, the Ki in assay [1] stood at 0.0357 µM; in assay [3] it was 0.42 µM.

In turn, `CC[C@@H](Cc1ccc(O)cc1)NC[C@H](O)c1cc(O)cc(O)c1` displayed a Ki in assay [1] of 0.294 µM.
